Data from patent US20250255304A1, “HIGHLY TRA[…] CONTROLLING COMPOSITION” (ZM Crop Protection Corporation, priority 2022, published 2025).

Assays:
Type in all cases: in vivo
[1] = tested on: Coptotermes formosanus Shiraki; assay: Test Example 1: effect of agent on gypsum treated with test agent solution; conditions: dicloromezotiaz 0.023%, imidacloprid 0.1%, fipronil 0.03% test agent solution on gypsum
Procedure: A test agent solution containing 0.023 parts of dicloromezotiaz was prepared by adding 99.875 parts of water to 0.125 parts of the aqueous suspension composition shown in Formulation Example 1.
In a comparative example, an aqueous suspension composition prepared by adding an agent solution, wherein 99 parts of water was added to 1 part of a flowable containing 10.0 parts of imidacloprid and which contained 0.1 parts of imidacloprid and a drug solution, wherein 299 parts of water was added to 1 part of a flowable containing 9.1 parts of fipronil and which contained 0.03 parts of fipronil, uniformly mixing same was used as a test agent solution of a comparative example.
As the imidacloprid formulation and the fipronil formulation, commercially available termite controlling agents were used and diluted solutions at practical agent concentrations thereof were used as test agent solutions.
Gypsum was cured and spread in a glass petri dish having a diameter of 90 mm, 15 ml of each of the test agent solution of the example and the test agent solution of the comparative example was uniformly dropped on the entire surface of the gypsum. Thereafter, ten workers of Coptotermes formosanus Shiraki were released into the petri dish and the petri dish was covered and left to stand in a thermostatic chamber (25° C./relative humidity 60%).
The number of abnormal termites and the number of dead termites among the released termites (Coptotermes formosanus Shiraki) were observed every one hour from immediately after the release of the termites (Coptotermes formosanus Shiraki) until ten hours passed and the total number of the abnormal termite rate and the dead termite rate was calculated as the abnormal or dead termite rate (%) according to [Expression 1] below and the rates of expression of the effects of the respective agents were compared. Each test agent was prepared in one petri dish as one plot and the test was carried out in two replicates.

[2] = tested on: Coptotermes formosanus Shiraki; assay: Test Example 2: primary transmission treatment effect
Procedure: (§1) A test agent solution containing 0.023 parts of dicloromezotiaz was prepared by adding 99.875 parts of water to 0.125 parts of the aqueous suspension composition shown in Formulation Example 1. As comparative examples, four types of commercially available neonicotinoid termite controlling agents and four types of slow-acting termite controlling agents shown in Table 2 were diluted with water at practical concentrations to prepare test agent solutions. The “agent concentration (%)” indicates the concentration of the active ingredient contained in each of the composition of the present invention and the termite controlling agents and the “test agent solution concentration (%)” indicates the concentration of the active ingredient in each of the prepared test agent solutions.
(§2) After 1.2 g of each of the test agent solutions of the example and the comparative examples diluted to a predetermined concentration and prepared was added to 4.8 g of soil, 6 g of the mixed soil was spread in a glass petri dish having a diameter of 50 mm and ten workers of Coptotermes formosanus Shiraki were released into the petri dish and exposed to the agent solution for 4 hours.

[3] = tested on: Coptotermes formosanus Shiraki; assay: Test Example 2: secondary transmission treatment effect
Procedure: as §1, §2

[4] = tested on: Coptotermes formosanus Shiraki; assay: Test Example 3: extirpation test with dust formulation using simulated termite trails

Structure (SMILES): Cc1cccn2c(=O)c(-c3cc(Cl)cc(Cl)c3)c([O-])[n+](Cc3cnc(Cl)s3)c12 [Dicloromezotiaz, dicloromezotiaz]
- Abnormal or dead termite rate (%) ([1]; time elapsed 1 h): 0%
- Abnormal or dead termite rate (%) ([1]; time elapsed 2 h): 0%
- Abnormal or dead termite rate (%) ([1]; time elapsed 3 h): 0%
- Abnormal or dead termite rate (%) ([1]; time elapsed 4 h): 0%
- Abnormal or dead termite rate (%) ([1]; time elapsed 5 h): 0%
- Abnormal or dead termite rate (%) ([1]; time elapsed 6 h): 19%
- Abnormal or dead termite rate (%) ([1]; time elapsed 7 h): 37%
- Abnormal or dead termite rate (%) ([1]; time elapsed 8 h): 51%
- Abnormal or dead termite rate (%) ([1]; time elapsed 9 h): 78%
- Abnormal or dead termite rate (%) ([1]; time elapsed 10 h): 100%
- Abnormal or dead termite rate (%) ([2]; after 1 day, Table 3, dicloromezotiaz 0.023%, fipronil 0.03%, imidacloprid 0.10%, chlorantraniliprole 0.05% solution in soil): 100%
- Abnormal or dead termite rate (%) ([2]; after 1 day, Table 4, dicloromezotiaz 0.023%, chlorfenapyr 0.11%, clothianidin 0.05%, dinotefuran 0.20%, thiamethoxam 0.10%, broflanilide 0.03% solution in soil): 100%
- Abnormal or dead termite rate (%) ([2]; after 3 days, Table 3, dicloromezotiaz 0.023%, fipronil 0.03%, imidacloprid 0.10%, chlorantraniliprole 0.05% solution in soil): 100%
- Abnormal or dead termite rate (%) ([2]; after 3 days, Table 4, dicloromezotiaz 0.023%, chlorfenapyr 0.11%, clothianidin 0.05%, dinotefuran 0.20%, thiamethoxam 0.10%, broflanilide 0.03% solution in soil): 100%
- Abnormal or dead termite rate (%) ([2]; after 7 days, Table 3, dicloromezotiaz 0.023%, fipronil 0.03%, imidacloprid 0.10%, chlorantraniliprole 0.05% solution in soil): 100%
- Abnormal or dead termite rate (%) ([2]; after 7 days, Table 4, dicloromezotiaz 0.023%, chlorfenapyr 0.11%, clothianidin 0.05%, dinotefuran 0.20%, thiamethoxam 0.10%, broflanilide 0.03% solution in soil): 100%
- Abnormal or dead termite rate (%) ([2]; after 14 days, Table 3, dicloromezotiaz 0.023%, fipronil 0.03%, imidacloprid 0.10%, chlorantraniliprole 0.05% solution in soil): 100%
- Abnormal or dead termite rate (%) ([2]; after 14 days, Table 4, dicloromezotiaz 0.023%, chlorfenapyr 0.11%, clothianidin 0.05%, dinotefuran 0.20%, thiamethoxam 0.10%, broflanilide 0.03% solution in soil): 100%
- Abnormal or dead termite rate (%) ([2]; after 21 days, Table 3, dicloromezotiaz 0.023%, fipronil 0.03%, imidacloprid 0.10%, chlorantraniliprole 0.05% solution in soil): 100%
- Abnormal or dead termite rate (%) ([2]; after 21 days, Table 4, dicloromezotiaz 0.023%, chlorfenapyr 0.11%, clothianidin 0.05%, dinotefuran 0.20%, thiamethoxam 0.10%, broflanilide 0.03% solution in soil): 100%
- Abnormal or dead termite rate (%) ([3]; after 1 day, Table 5, dicloromezotiaz 0.023%, fipronil 0.03%, imidacloprid 0.10%, chlorantraniliprole 0.05% solution in soil): 8.9%
- Abnormal or dead termite rate (%) ([3]; after 1 day, Table 6, dicloromezotiaz 0.023%, chlorfenapyr 0.11%, clothianidin 0.05%, dinotefuran 0.20%, thiamethoxam 0.10%, broflanilide 0.03% solution in soil): 2.2%
- Abnormal or dead termite rate (%) ([3]; after 3 days, Table 5, dicloromezotiaz 0.023%, fipronil 0.03%, imidacloprid 0.10%, chlorantraniliprole 0.05% solution in soil): 83%
- Abnormal or dead termite rate (%) ([3]; after 3 days, Table 6, dicloromezotiaz 0.023%, chlorfenapyr 0.11%, clothianidin 0.05%, dinotefuran 0.20%, thiamethoxam 0.10%, broflanilide 0.03% solution in soil): 44%
- Abnormal or dead termite rate (%) ([3]; after 7 days, Table 5, dicloromezotiaz 0.023%, fipronil 0.03%, imidacloprid 0.10%, chlorantraniliprole 0.05% solution in soil): 91%
- Abnormal or dead termite rate (%) ([3]; after 7 days, Table 6, dicloromezotiaz 0.023%, chlorfenapyr 0.11%, clothianidin 0.05%, dinotefuran 0.20%, thiamethoxam 0.10%, broflanilide 0.03% solution in soil): 88%
- Abnormal or dead termite rate (%) ([3]; after 14 days, Table 5, dicloromezotiaz 0.023%, fipronil 0.03%, imidacloprid 0.10%, chlorantraniliprole 0.05% solution in soil): 91%
- Abnormal or dead termite rate (%) ([3]; after 14 days, Table 6, dicloromezotiaz 0.023%, chlorfenapyr 0.11%, clothianidin 0.05%, dinotefuran 0.20%, thiamethoxam 0.10%, broflanilide 0.03% solution in soil): 88%
- Abnormal or dead termite rate (%) ([3]; after 21 days, Table 5, dicloromezotiaz 0.023%, fipronil 0.03%, imidacloprid 0.10%, chlorantraniliprole 0.05% solution in soil): 92%
- Abnormal or dead termite rate (%) ([3]; after 21 days, Table 6, dicloromezotiaz 0.023%, chlorfenapyr 0.11%, clothianidin 0.05%, dinotefuran 0.20%, thiamethoxam 0.10%, broflanilide 0.03% solution in soil): 84%
- Abnormal or dead termite rate (%) ([4]; active ingredient concentration 0.10%, 1 h): 0%
- Abnormal or dead termite rate (%) ([4]; active ingredient concentration 0.10%, 2 h): 0%
- Abnormal or dead termite rate (%) ([4]; active ingredient concentration 0.10%, 3 h): 0%
- Abnormal or dead termite rate (%) ([4]; active ingredient concentration 0.10%, 4 h): 25%
- Abnormal or dead termite rate (%) ([4]; active ingredient concentration 0.10%, 5 h): 35%
- Abnormal or dead termite rate (%) ([4]; active ingredient concentration 0.10%, 6 h): 40%
- Abnormal or dead termite rate (%) ([4]; active ingredient concentration 0.10%, 7 h): 40%
- Abnormal or dead termite rate (%) ([4]; active ingredient concentration 0.10%, 1 day): 85%
- Abnormal or dead termite rate (%) ([4]; active ingredient concentration 0.10%, 2 days): 100%
- Abnormal or dead termite rate (%) ([4]; active ingredient concentration 0.10%, 3 days): 100%
- Abnormal or dead termite rate (%) ([4]; active ingredient concentration 0.10%, 7 days): 100%
- Abnormal or dead termite rate (%) ([4]; active ingredient concentration 0.25%, 1 h): 0%
- Abnormal or dead termite rate (%) ([4]; active ingredient concentration 0.25%, 2 h): 0%
- Abnormal or dead termite rate (%) ([4]; active ingredient concentration 0.25%, 3 h): 25%
- Abnormal or dead termite rate (%) ([4]; active ingredient concentration 0.25%, 4 h): 25%
- Abnormal or dead termite rate (%) ([4]; active ingredient concentration 0.25%, 5 h): 60%
- Abnormal or dead termite rate (%) ([4]; active ingredient concentration 0.25%, 6 h): 100%
- Abnormal or dead termite rate (%) ([4]; active ingredient concentration 0.25%, 7 h): 100%
- Abnormal or dead termite rate (%) ([4]; active ingredient concentration 0.25%, 1 day): 100%
- Abnormal or dead termite rate (%) ([4]; active ingredient concentration 0.25%, 2 days): 100%
- Abnormal or dead termite rate (%) ([4]; active ingredient concentration 0.25%, 3 days): 100%
- Abnormal or dead termite rate (%) ([4]; active ingredient concentration 0.25%, 7 days): 100%
- Abnormal or dead termite rate (%) ([4]; active ingredient concentration 0.5%, 1 h): 0%
- Abnormal or dead termite rate (%) ([4]; active ingredient concentration 0.5%, 2 h): 0%
- Abnormal or dead termite rate (%) ([4]; active ingredient concentration 0.5%, 3 h): 45%
- Abnormal or dead termite rate (%) ([4]; active ingredient concentration 0.5%, 4 h): 45%
- Abnormal or dead termite rate (%) ([4]; active ingredient concentration 0.5%, 5 h): 100%
- Abnormal or dead termite rate (%) ([4]; active ingredient concentration 0.5%, 6 h): 100%
- Abnormal or dead termite rate (%) ([4]; active ingredient concentration 0.5%, 7 h): 100%
- Abnormal or dead termite rate (%) ([4]; active ingredient concentration 0.5%, 1 day): 100%
- Abnormal or dead termite rate (%) ([4]; active ingredient concentration 0.5%, 2 days): 100%
- Abnormal or dead termite rate (%) ([4]; active ingredient concentration 0.5%, 3 days): 100%
- Abnormal or dead termite rate (%) ([4]; active ingredient concentration 0.5%, 7 days): 100%
- Abnormal or dead termite rate (%) ([4]; active ingredient concentration 1%, 1 h): 0%
- Abnormal or dead termite rate (%) ([4]; active ingredient concentration 1%, 2 h): 30%
- Abnormal or dead termite rate (%) ([4]; active ingredient concentration 1%, 3 h): 85%
- Abnormal or dead termite rate (%) ([4]; active ingredient concentration 1%, 4 h): 85%
- Abnormal or dead termite rate (%) ([4]; active ingredient concentration 1%, 5 h): 100%
- Abnormal or dead termite rate (%) ([4]; active ingredient concentration 1%, 6 h): 100%
- Abnormal or dead termite rate (%) ([4]; active ingredient concentration 1%, 7 h): 100%
- Abnormal or dead termite rate (%) ([4]; active ingredient concentration 1%, 1 day): 100%
- Abnormal or dead termite rate (%) ([4]; active ingredient concentration 1%, 2 days): 100%
- Abnormal or dead termite rate (%) ([4]; active ingredient concentration 1%, 3 days): 100%
- Abnormal or dead termite rate (%) ([4]; active ingredient concentration 1%, 7 days): 100%
